We go through 2 compounds from article PMC11725581, “Developing novel Lin28 inhibitors by computer aided drug design” (Cell Death Discovery, 2025).

The structures appear in SMILES notation.

In assay [1] the target is T1, Lin28b ZKD (Homo sapiens, UniProt Q6ZN17).
T1 sequence (Q6ZN17 127-166 limits assumed): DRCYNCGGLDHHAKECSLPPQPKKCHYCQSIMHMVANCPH
Put plainly: EMSA, Lin28b ZKD:pre-let-7d complex formation. Type of assay: binding. To be noted: 1 μM Lin28 ZKD, 10 nM IRDye800-labeled pre-let-7d probe. The procedure:
(§1) We next validated the newly developed compounds using EMSA, a non-florescent-based assay to detect Lin28b ZKD:pre-let-7 complex formation. Similar to the FP assays, we first optimized the experimental conditions by titrating: (1) IRDye800-labeled pre-let-7d RNA probe, (2) Lin28b ZKD protein, and (3) non-labeled pre-let-7 probe as a competitor (Fig. 2C). For the validation experiments, 1 μM Lin28 ZKD and 10 nM of IRDye800-labeled pre-let-7d probe were mixed with each candidate compound. Compounds C1632 and Ln15 were used as control Lin28 inhibitors, respectively. […] Regardless, we use these two biochemical assays to shortlist the most promising compounds for further characterization. […] While our inhibitors directly target the Lin28 ZKD, it is unclear whether C1632 may bind to domains other than the ZKD or allosterically disrupt Lin28’s capacity to bind its RNA substrates.
EMSA followed the standard protocols we published. An IRDye800CWN-labeled pre-Let-7d RNA probe (5’-IRD800CWN-[…]-3’) was purchased from IDT (Coralville, IA, USA). Lin28a or Lin28b proteins were incubated with 300 nM of probe in a standard 20 uL EMSA reaction in a reaction buffer containing 20 mM HEPES-NaOH, pH 7.4, 2 mM DTT, 3 mM MgCl2, 0.05% NP-40, protease inhibitors, and 0.1 ug poly[dI:dC]. After incubation for 30 min at 37 °C, reactions were loaded onto 4% non-denatured polyacrylamide gel in 0.5× TBE buffer. The RNA oligo bands were visualized by using the Li-Cor Odyssey 9120 Infrared Imaging System.
A general note: In EMSA bound probe runs differently from free probe, usually more slowly.

The target in assay [2] is T2, Lin28a protein (Homo sapiens, UniProt Q9H9Z2).
T2 sequence (Q9H9Z2 1-209): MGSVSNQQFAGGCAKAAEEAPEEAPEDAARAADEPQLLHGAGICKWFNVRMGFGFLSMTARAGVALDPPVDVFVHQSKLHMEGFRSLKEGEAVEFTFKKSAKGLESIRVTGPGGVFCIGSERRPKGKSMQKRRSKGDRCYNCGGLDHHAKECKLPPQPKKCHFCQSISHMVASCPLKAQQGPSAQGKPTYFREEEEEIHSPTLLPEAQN
Put plainly: EMSA with Lin28a protein and pre-let-7d probe. To be noted: same EMSA conditions. It counts as binding. The method, then:
as §1
EMSA followed the standard protocols we published. An IRDye800CWN-labeled pre-Let-7d RNA probe (5’-IRD800CWN-[…]-3’) was purchased from IDT (Coralville, IA, USA). Lin28a or Lin28b proteins were incubated with 300 nM of probe in a standard 20 uL EMSA reaction in a reaction buffer containing 20 mM HEPES-NaOH, pH 7.4, 2 mM DTT, 3 mM MgCl2, 0.05% NP-40, protease inhibitors, and 0.1 ug poly[dI:dC]. After incubation for 30 min at 37 °C, reactions were loaded onto 4% non-denatured polyacrylamide gel in 0.5× TBE buffer. […]

Assay [3] has as its system DuNE spheroids. Nature of the assay: DuNE 3D spheroid growth (Incucyte). It counts as cell-based. To be noted: 0-100 μM, 0-6 days, read-out: concentration to achieve 50% spheroid growth inhibition. The source says:
(§2) CSCs have characteristic tumorigenic, self-renewal, and differentiation properties. The self-renewal ability is hijacked by CSCs that makes them both tumorigenic and capable of sustaining long-term tumor growth, which can be evaluated by 3D spheroid and colony formation assays. We established a DuNE spheroid model in which DuNE cells formed 3D spheroids in 96-well plates (Figure S3). By integrating this 3D culture with the Incucyte live-cell imaging system, we quantified the sizes of the spheroid growth over 0–6 days to generate a spheroid growth curve. Using this model system, we treated the DuNE spheroids with increasing doses (0–100 μM) of C1632, Ln15, and Ln268 for 0–6 days. […] In addition, classic colony formation assays were used to measure the stemness in the DuNE model. Colony formation counts, which were ~50 under vehicle treatment after 14 days, decreased by 22% in C1632-treated plates, and by 75% and 96% in the Ln15 and Ln268 treated plates, respectively (Fig. 4D).
For a spheroid generation, 1000 cells/well were seeded in 96-well ULA round-bottomed plates (Corning, Amsterdam) using a multichannel pipette. 3D multicellular spheroids were spontaneously generated after 24 h culture. Plates were incubated for 6 days at 37 °C, 5% CO2, and 95% humidity. DuNE and Du145 cells were cultured in DMEM with 10% FBS. Fully automated image analysis of tumor spheroids was carried out with the Incucyte® S3 Live-Cell Analysis System. The size and shape of multicellular spheroids were analyzed by using the Incucyte® Spheroid Analysis Software Module.

The subject of assay [4] is DuNE cells. Nature of the assay: Colony formation assay, DuNE cells. To be noted: 14 days, vs vehicle (~50 colonies). It counts as cell-based.
Excerpt: as §2
In the colony formation assays, cancer cells were seeded in 0.7% soft agar in a 6-well plate, with a 1% soft agar bottom base coating. Cells were allowed to grow for 14 days to form colonies. Colonies were stained with crystal violet and imaged by stitching 5X field images together to capture the entire well (Zeiss light microscope [Carl Zeiss]). Colony numbers were counted according to their diameters (100-300um or >300um). Three independent biological replicates were performed for all the assays.

In assay [5] the test system is cancer cells. Details: method as in PMID 27548809. To be noted: cited from earlier work.
Assay [6] deals with T1, Lin28b ZKD. Nature of the assay: Fluorescence polarization (FP) assay, Lin28b ZKD:pre-let-7d interaction. It counts as binding. The note with it: 10 nM pre-let-7d probe, 1 μM Lin28b ZKD. The method, then:
We conducted two biochemical assays, FP and EMSA, to validate the predicted compounds. To optimize the FP assays, we performed a series of titrations using: (1) FAM-labeled pre-let-7d RNA probe, (2) Lin28b ZKD protein, and (3) non-labeled pre-let-7 probe as a competitor (Fig. 2A). These assays yielded the optimal concentrations required for the subsequent FP validation assays, namely 10 nM for the pre-let-7d probe and 1 μM for Lin28b ZKD protein. The FP signal from the free probe was set as 0%, while the signal from the probe-ZKD complex in the absence of compounds was set as 100%. C1632 was used as a control Lin28 inhibitor (Fig. 2B). […] Since the docking pocket is almost identical between Lin28a and Lin28b homologs, we repeated the FP assays using Lin28a ZKD (Figure S2).
The fluorescein amidites (FAM)-tagged pre-Let-7d probe with the sequence of […] was purchased from Integrated DNA Technologies (IDT). The probe at the concentrations ranging from 1 nM to 50 uM was incubated with Lin28B (ZKD) or Lin28 (CSD+ZKD) to a final volume of 30 uL at room temperature for 20 min. To read the fluorescence, a TECAN 500 machine was used. Fluorescence polarization was calculated using the following equation:
P=(Fparrallel−Fperpendicular)/(Fparrallel+FperpendicularP)
where P is the fluorescence polarization reading, F parallel is the fluorescence intensity acquired from the parallel excitation plane, and F perpendicular is the fluorescence intensity acquired from the perpendicular direction of the excitation plane. The total fluorescence intensity is estimated using the following equation:
F=Fparallel+2FperpendicularF.
All the raw FP signal data from the TECAN 500 FP results were analyzed using Prism 8.0 (GraphPad, San Diego, CA, USA); normalized curves were plotted and IC50 values were estimated. All FP data were repeated three to five times.
Figure S1. Lin28b ZKD protein was incubated with the indicated compounds at the concentration of 0, 0.1, 0.2, 0.5, 1, 2, 5, 10, 20, 50, 100, and 200uM. FP signals were measured and plotted relative to that from vehicle.

For assay [7], the target named is T1, Lin28b ZKD. Nature of the assay: 1H-15N HSQC NMR of Lin28b-ZKD with ligand. Type of assay: binding. The note with it: ligand added in 20:1 molar ratio. An excerpt: Given that Ln268 is derived from the parent compound Ln15, we wanted to assess whether the improved properties of Ln268 were linked to a potential difference in its interaction with Lin28 ZKD. To this end, we collected ^1H-^15N HSQC spectra of Lin28b-ZKD, Lin28b-ZKD + Ln15, and Lin28b-ZKD + Ln268. RNA binding proteins (RBPs) commonly have binding pockets that are intrinsically disordered, as evidenced by the narrow chemical shift dispersion observed in the HQSC of Lin28b-ZKD alone (Fig. 3D). Addition of either Ln15 or Ln268 led to changes in the chemical shifts of ca. 20 residues, consistent with the change in conformation of the Lin28b-ZKD segment which encompasses residues 137–160 (three of which are prolines) upon RNA binding (Fig. 3E). Although many of the peak shifts are the same for the Ln15 and Ln268 containing samples, there are around 7 resonances where the peaks disappear in the case of Ln268.
NMR spectra were recorded at 5 °C on a Bruker Avance III 850 MHz spectrometer, equipped with a TCI cryoprobe. ^1H-^15N HSQC experiments were recorded on ^13C/^15N-labeled Lin28b ZKD (230 μM), in 20 mM d-Tris-HCl (pH 7.5), 100 mM NaCl, 1 mM d-DTT, 0.02% NaN3, 0.25 mM ZnCl2 + 1 mM IDA, and 10% D2O, to which unlabeled Ln15 and Ln268 was added, respectively. The time domain matrix was 4k by 512. Four scans were acquired per t1 increment. Spectra were processed and plotted using Topspin to a final size of 8k by 1k. For the overlays, the levels were set to the same base level in all cases, with a multiplication factor of 1.1.

Take `CC(=O)N(C)c1cccc(-c2ccc3nnc(C)n3n2)c1` [C1632, reference compound]: the “inhibition of Lin28b ZKD:pre-let-7d complex formation (EMSA)” value in assay [1] is recorded as “did not observe any obvious inhibition”. Further, in assay [2], the “inhibition of Lin28a protein (EMSA)” value is on record as “did not observe any obvious inhibition”. In assay [3], the IC50 came to 100 µM. Further, in assay [4], the “decrease of colony formation counts” value is recorded as 22%. Moreover, the “concentration needed for inhibitory effects on cancer cells” value in assay [5] is “exceeding 100 μM”.

Take `O=c1[nH]c(Nc2ccccc2O)cs1` [Ln15]: the IC50 amounted to 9 µM in assay [6] and 50 µM in assay [3]. In addition, in assay [4], the “decrease of colony formation counts” value stood at 75%. For the same compound, in assay [7], the “residues of Lin28b-ZKD with changed chemical shifts (1H-15N HSQC)” value was “ca. 20 residues”.
